Molecule `*C(=O)Oc1ccc(C(C)(C)c2ccc(OC(=O)c3ccc4c(c3)C(=O)N(c3ccc(Oc5ccc(N6C(=O)c7ccc(*)cc7C6=O)cc5)cc3)C4=O)cc2)cc1` (repeat unit) registered a glass transition temperature of 200.00 °C.

`*C(=O)c1ccc2c(c1)C(=O)N(c1cccc(Nc3nc(Nc4cccc(N5C(=O)c6ccc(*)cc6C5=O)c4)nc(N(c4ccccc4)c4ccccc4)n3)c1)C2=O` (repeat unit) returned a glass transition temperature of 290.00 °C.

With `*C(=O)c1ccc2c(c1)C(=O)N(c1cccc(Nc3ncnc(Nc4cccc(N5C(=O)c6ccc(*)cc6C5=O)c4)n3)c1)C2=O` (repeat unit), the glass transition temperature stood at 290.00 °C.

Take `*C(=O)c1ccc2c(c1)C(=O)N(c1cccc(OCCOc3cccc(N4C(=O)c5ccc(*)cc5C4=O)c3)c1)C2=O` (repeat unit): the glass transition temperature was 191.00 °C. For the molecule `*C(=O)c1ccc2c(c1)C(=O)N(c1cccc(Oc3cccc(Oc4cccc(N5C(=O)c6ccc(*)cc6C5=O)c4)c3)c1)C2=O` (repeat unit), the glass transition temperature came out at 211.00 °C.

In turn, `*C(=O)c1ccc2c(c1)C(=O)N(c1cccc(P(=O)(c3ccccc3)c3cccc(N4C(=O)c5ccc(*)cc5C4=O)c3)c1)C2=O` (repeat unit) returned a glass transition temperature of 273.00 °C. For `*CC(=O)OC(=O)COc1ccc(C(C)(C)c2ccc(O*)cc2)cc1` (repeat unit) the value was 105.00 °C. For `*CC(COc1ccc(C(C)(C)c2ccc(O*)cc2)cc1)OC(=O)/C=C/c1ccco1` (repeat unit) the value was 107.20 °C; for `*CC(COc1ccc(C(C)(C)c2ccc(O*)cc2)cc1)OC(=O)c1ccccc1` (repeat unit), 65.00 °C.

Molecule `*CC(COc1ccc(C(C)(c2ccccc2)c2ccc(O*)cc2)cc1)OC(=O)c1ccccc1` (repeat unit) gave a glass transition temperature of 126.00 °C.

`*CC(O)CN(CCO)CC(O)COc1ccc(C(C)(C)c2ccc(O*)cc2)cc1` (repeat unit) yielded a glass transition temperature of 87.10 °C. With `*CC(O)COC(=O)CCCCCCCCC(=O)OCC(O)COc1ccc(C(C)(C)c2ccc(O*)cc2)cc1` (repeat unit) the figure was 30.00 °C.

Turning to `*CC(O)COc1c(Cl)cc(C(C)(C)c2cc(Cl)c(OCC(O)COc3ccc(C(C)(C)c4ccc(O*)cc4)cc3)c(Cl)c2)cc1Cl` (repeat unit), the glass transition temperature worked out at 100.00 °C. With `*CC(O)COc1ccc(C(C)(C)c2ccc(OCC(O)CN3CCN(*)CC3)cc2)cc1` (repeat unit) the figure was 100.00 °C; with `*CC(O)COc1ccc(C(C)(C)c2ccc(OCC(O)COc3ccc(NC(=O)CCCC(=O)Nc4ccc(O*)cc4)cc3)cc2)cc1` (repeat unit), 105.00 °C. For `*CC(O)COc1ccc(C(C)(C)c2ccc(OCC(O)COc3ccc(NC(=O)CCCCC(=O)Nc4ccc(O*)cc4)cc3)cc2)cc1` (repeat unit) the value was 112.00 °C; for `*CC(O)COc1ccc(C(C)(C)c2ccc(OCC(O)COc3ccc(Oc4ccc(O*)cc4)cc3)cc2)cc1` (repeat unit), 85.00 °C; for `*CC(O)COc1ccc(C(C)(C)c2ccc(OCC(O)COc3ccc(S(=O)(=O)c4ccc(O*)cc4)cc3)cc2)cc1` (repeat unit), 140.00 °C. `*CC(O)COc1ccc(C(C)(C)c2ccc(OCC(O)COc3cccc(NC(=O)C(=O)Nc4cccc(O*)c4)c3)cc2)cc1` (repeat unit) had a glass transition temperature of 119.00 °C. With `*CC(O)COc1ccc(S(=O)(=O)c2ccc(O*)c(C)c2)cc1C` (repeat unit) the figure was 132.50 °C; with `*CCCCCC(=O)Oc1ccc(C(C)(C)c2ccc(OC(=O)c3ccc4c(c3)C(=O)N(*)C4=O)cc2)cc1` (repeat unit), 110.00 °C; with `*OS(=O)(=O)c1cccc(C(=O)Oc2ccc(C(C)(C)c3ccc(*)cc3)cc2)c1` (repeat unit), 133.00 °C. With `*Oc1ccc(C(C#N)(c2ccccc2)c2ccc(OC(*)=O)cc2)cc1` (repeat unit) the figure was 138.00 °C; with `*Oc1ccc(C(C)(C)c2ccc(C(C)(C)c3ccc(OC(*)=O)cc3)cc2)cc1` (repeat unit), 154.00 °C. With `*Oc1ccc(C(C)(C)c2ccc(OC(*)=O)c(C)c2)cc1C` (repeat unit) the figure was 124.00 °C; with `*Oc1ccc(C(C)(C)c2ccc(OC(=O)CCCCC(*)=O)cc2)cc1` (repeat unit), 54.00 °C; with `*Oc1ccc(C(C)(C)c2ccc(OC(=O)CCCCCCCCC(*)=O)cc2)cc1` (repeat unit), 14.2 °C. The molecule `*Oc1ccc(C(C)(C)c2ccc(OC(=O)CN(CC(*)=O)c3ccc(/N=N/c4ccc([N+](=O)[O-])cc4)cc3)cc2)cc1` (repeat unit) came in with a glass transition temperature of 152.00 °C. `*Oc1ccc(C(C)(C)c2ccc(OC(=O)OCC3CCC(COC(*)=O)CC3)cc2)cc1` (repeat unit) came in with a glass transition temperature of 90.40 °C. Regarding `*Oc1ccc(C(C)(C)c2ccc(OC(=O)OCCN(CCOC(*)=O)c3ccccc3)cc2)cc1` (repeat unit), the glass transition temperature amounted to 70.00 °C. For `*Oc1ccc(C(C)(C)c2ccc(OC(=O)c3ccc(C(c4ccc(C(*)=O)cc4)(C(F)(F)F)C(F)(F)F)cc3)cc2)cc1` (repeat unit) the value was 124.00 °C; for `*Oc1ccc(C(C)(C)c2ccc(OC(=O)c3ccc(CC(*)=O)cc3)cc2)cc1` (repeat unit), 85.00 °C. With `*Oc1ccc(C(C)(C)c2ccc(OC(=O)c3ccc(S(=O)(=O)c4ccc(C(*)=O)cc4)cc3)cc2)cc1` (repeat unit) the figure was 220.00 °C; with `*Oc1ccc(C(C)(C)c2ccc(OC(=O)c3cccc(C(*)=O)c3)c(C)c2)cc1C` (repeat unit), 162.00 °C; with `*Oc1ccc(C(C)(CC)c2ccc(OC(=O)OC3C(C)(C)C(OC(*)=O)C3(C)C)cc2)cc1` (repeat unit), 124.00 °C. For `*Oc1ccc(C(C)(CCC#N)c2ccc(OC(*)=O)cc2)cc1` (repeat unit) the value was 150.00 °C. In turn, `*Oc1ccc(C(C)(c2ccccc2)c2ccc(OC(*)=S)cc2)cc1` (repeat unit) came in with a glass transition temperature of 181.00 °C. Take `*Oc1ccc(C(C)(c2ccccc2)c2ccc(OC(=O)OC3C(C)(C)C(OC(*)=O)C3(C)C)cc2)cc1` (repeat unit): the glass transition temperature was 149.00 °C. For `*Oc1ccc(C(C)(c2ccccc2)c2ccc(OC(=O)c3cccc(C(*)=O)c3)cc2)cc1` (repeat unit) the value was 202.00 °C; for `*Oc1ccc(C(C)(c2ccccc2)c2ccc(OC(=O)c3ccccc3-c3ccccc3C(*)=O)cc2)cc1` (repeat unit), 172.00 °C; for `*Oc1ccc(C(C)c2ccc(OC(*)=O)cc2)cc1` (repeat unit), 130.00 °C. For `*Oc1ccc(C(C)c2ccc(OC(*)=S)cc2)cc1` (repeat unit) the value was 107.00 °C; for `*Oc1ccc(C(CC)(c2ccccc2)c2ccc(OC(*)=S)cc2)cc1` (repeat unit), 173.00 °C; for `*Oc1ccc(C(CC)(c2ccccc2)c2ccc(OC(=O)c3ccc(C(*)=O)cc3)cc2)cc1` (repeat unit), 243.00 °C. With `*Oc1ccc(C(CC)c2ccc(OC(*)=O)cc2)cc1` (repeat unit) the figure was 128.00 °C; with `*Oc1ccc(C(c2ccc(OC3(F)C(*)(F)C(F)(F)C3(F)F)cc2)(C(F)(F)F)C(F)(F)F)cc1` (repeat unit), 122.50 °C; with `*Oc1ccc(C2(c3ccc(OC(*)=O)c(C)c3)CC3CCC2C3)cc1C` (repeat unit), 161.00 °C. `*Oc1ccc(C2(c3ccc(OC(*)=O)c(C)c3)CCCCC2)cc1C` (repeat unit) came in with a glass transition temperature of 137.50 °C. For `*Oc1ccc(C2(c3ccc(OC(*)=O)cc3)c3cc(N(C)C)ccc3-c3ccc([N+](=O)[O-])cc32)cc1` (repeat unit) the value was 278.00 °C. With `*Oc1ccc(C2(c3ccc(OC(*)=O)cc3C)CC3CC2C2C4CCC(C4)C32)cc1C` (repeat unit) the figure was 232.00 °C; with `*Oc1ccc(C2(c3ccc(OC(=O)CCC(*)=O)cc3)c3cc(N(C)C)ccc3-c3ccc([N+](=O)[O-])cc32)cc1` (repeat unit), 215.00 °C; with `*Oc1ccc(C2(c3ccc(OC(=O)CCCC(*)=O)cc3)c3cc(N(C)C)ccc3-c3ccc([N+](=O)[O-])cc32)cc1` (repeat unit), 181.00 °C.

Molecule `*Oc1ccc(C2(c3ccc(OC(=O)c4ccc(C(*)=O)cc4)c(C)c3)CCC3CCCCC3C2)cc1C` (repeat unit) came in with a glass transition temperature of 247.00 °C. As to `*Oc1ccc(C2(c3ccc(OC(=O)c4ccc(C(*)=O)cc4)cc3)CCC(C(C)(C)C)CC2)cc1` (repeat unit), the glass transition temperature came out at 210.00 °C.

Regarding `*Oc1ccc(C2(c3ccc(OC(=O)c4cccc(C(*)=O)c4)c(C)c3)CCC3CCCCC3C2)cc1C` (repeat unit), the glass transition temperature amounted to 207.00 °C. As to `*Oc1ccc(C2(c3ccc(Oc4ccc(C(=O)Oc5ccc(C(C)(C)c6ccc(OC(=O)c7ccc(*)cc7)cc6)cc5)cc4)cc3)CCC(C(C)(C)C)CC2)cc1` (repeat unit), the glass transition temperature is 144.00 °C.

Molecule `*Oc1ccc(OC(=O)Oc2ccc(C(C)(C)c3ccc(OC(*)=O)cc3)cc2)cc1` (repeat unit) showed a glass transition temperature of 97.00 °C. With `*Oc1ccc(SC(=O)Oc2ccc(C(C)(C)c3ccc(OC(=O)Sc4ccc(*)cc4)cc3)cc2)cc1` (repeat unit) the figure was 145.00 °C; with `*Oc1ccc2c(c1)C(C)(c1ccc(OC(=O)c3ccc(C(*)=O)cc3)cc1)CC2(C)C` (repeat unit), 252.50 °C; with `*Oc1ccc2c(c1)C(C)(c1ccc(OC(=O)c3cccc(C(*)=O)c3)cc1)CC2(C)C` (repeat unit), 230.50 °C.

The record behind these values is the PolyMetriX glass transition set.
